Patent US20090181948A1, “DIAMINE DERIVATIVE” (KYOWA HAKKO KOGYO CO., LTD., priority 2005, published 2009)

What follows are compounds tested against T1, histamine H3 receptor (Rattus norvegicus, UniProt Q9QYN8) (assay: Histamine H3 receptor binding assay ([3H]-Nα-methylhistamine binding to rat striatum homogenate)). Conditions: 1 μmol/L test compound; [3H]-Nα-methylhistamine 1 nmol/L; striata of Sprague-Dawley male rats, 25° C., 1 hour; read-out: Inhibition ratio of [3H]-Nα-methylhistamine binding.
T1 construct: from tissue; host or cells: rat striatum (Sprague-Dawley, male, 6 weeks), membrane homogenate
Procedure: To the striata of Sprague-Dawley male rats (6 weeks of age), a 10-fold volume of lysis buffer {50 mmol/L [[…] (Tris)]/HCl (pH 7.4), 5 mmol/L ethylenediaminetetraacetic acid (EDTA), a protease inhibitor mixture [1 mg/mL phenylmethylsulfonyl fluoride (PMSF), 1 μg/mL pepstatin A, 1 μg/mL leupeptin, 1 μg/mL chymostatin]} was added and the striata were homogenized. The resulting homogenate was centrifuged (30,000×g, 4° C., 30 min), and the obtained precipitate was resuspended in a 10-fold volume of lysis buffer, followed by centrifugation under the same condition. To the obtained precipitate, a 3-fold volume of lysis buffer was added to suspend the precipitate, and the resulting tissue homogenate was used for a test.
A test compound was dissolved in an assay buffer [50 mmol/L Tris/HCl (pH 7.4), 5 mmol/L EDTA], and [^3H]-N^α-methylhistamine (1 nmol/L) and the tissue homogenate (20 μg, in terms of protein amount) were added thereto, and then, the mixture was incubated at 25° C. for 1 hour. Then, the reaction was terminated by rapid suction filtration on a glass filter [GF/B: Whatman, previously soaked in 0.3 w/v % polyethylenimine for about 30 min]. Then, the glass filter was washed three times with 3 mL of assay buffer. This glass filter was transferred into a scintillation vial and dried at 60° C. for 30 minutes. Then, 0.5 mL of Ultimagold (Perkin Elmer) was added thereto, and the radioactivity (binding amount of [^3H]-N^α-methylhistamine) was measured using a liquid scintillation counter. The obtained value was used as a binding amount in the presence of the test compound. The same procedure as described above was carried out in the absence of the test compound, and the binding amount of [^3H]-N^α-methylhistamine obtained at this time was used as a binding amount in the absence of the test compound. Further, the binding amount of [^3H]-N^α-methylhistamine obtained in the presence of 10 μmol/L thioperamide was used as a non-specific binding amount. An inhibitory action of [^3H]-N^α-methylhistamine binding was represented by an inhibition ratio in terms of 1 μmol/L of the test compound calculated by the following Equation (1).
Inhibition ratio(%)={1−[(Binding amount in the presence of test compound)−(Non-specific binding amount)]/[(Binding amount in the absence of test compound)−(Non-specific binding amount)]}×100 (1)

T1 sequence (Q9QYN8 whole entry): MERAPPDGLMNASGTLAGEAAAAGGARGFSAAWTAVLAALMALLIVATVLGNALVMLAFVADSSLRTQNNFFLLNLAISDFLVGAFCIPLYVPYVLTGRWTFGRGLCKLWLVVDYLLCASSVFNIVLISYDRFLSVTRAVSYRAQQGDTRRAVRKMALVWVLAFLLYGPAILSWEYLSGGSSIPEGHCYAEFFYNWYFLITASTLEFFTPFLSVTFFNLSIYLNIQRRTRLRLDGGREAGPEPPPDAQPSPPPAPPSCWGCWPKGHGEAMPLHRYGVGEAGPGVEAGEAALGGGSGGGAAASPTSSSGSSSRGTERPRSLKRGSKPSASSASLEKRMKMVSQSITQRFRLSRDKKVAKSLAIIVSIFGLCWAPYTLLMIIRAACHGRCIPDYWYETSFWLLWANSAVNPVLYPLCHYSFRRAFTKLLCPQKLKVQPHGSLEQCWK

Row | Structure (SMILES) | inhibition at 1 µM [%]
1 | CC1CCCN1CCCN1CCN(CCCN2CCC(O)C2)C1=C(C#N)C#N (centres unmarked) [Compound 114, {1-[3-(3-Hydroxypyrrolidin-1-yl)propyl]-3-[3-(2-methylpyrrolidin-1-yl)propyl]imidazolidin-2-ylidene}malononitrile] | ≥ 80
2 | N#CC(C#N)=C1N(CCCCN2CCCCC2)CCN1CCCN1CCCCC1 [Compound 8, [1-(4-Piperidinobutyl)-3-(3-piperidinopropyl)imidazolidin-2-ylidene]malononitrile] | ≥ 80
3 | N#CC(C#N)=C1N(CCCN2CCCCC2)CCN1C1CCN(CC2CC2)CC1 [Compound 229, [1-(1-Cyclopropylmethylpiperidin-4-yl)-3-(3-piperidinopropyl)imidazolidin-2-ylidene]malononitrile] | ≥ 80
4 | N#CC(C#N)=C1N(CCCN2CCCC2)CCN1CCCN1CCCC1 [Compound 94, {1,3-Bis[3-(pyrrolidin-1-yl)propyl]imidazolidin-2-ylidene}malononitrile] | ≥ 80
5 | CC1CC(C)CN(CCCN2CCN(CCCN3CCCCC3)C2=C(C#N)C#N)C1 (centres unmarked) [Compound 102, {1-[3-(3,5-Dimethylpiperidino)propyl]-3-(3-piperidinopropyl)imidazolidin-2-ylidene}malononitrile] | ≥ 80
6 | N#CC(C#N)=C1N(CCCN2CCc3ccccc3C2)CCN1CCN1CCCCC1 [Compound 52, {1-[3-(1,2,3,4-Tetrahydroisoquinolin-2-yl)propyl]-3-(2-piperidinoethyl)imidazolidin-2-ylidene}malononitrile] | ≥ 80
7 | CC1CC(C)CN(CCCN2CCN(CCCN3CCCC3C)C2=C(C#N)C#N)C1 (centres unmarked) [Compound 110, {1-[3-(3,5-Dimethylpiperidino)propyl]-3-[3-(2-methylpyrrolidin-1-yl)propyl]imidazolidin-2-ylidene}malononitrile] | ≥ 80
8 | CC1CCCN1CC1CCN(C(=C(C#N)C#N)N(C)CCN2CCC[C@@H]2C)CC1 (stereo partly drawn) [Compound 157, ({N-methyl-N-[2-((S)-2-methylpyrrolidin-1-yl)ethyl]amino}[4-(2-methylpyrrolidin-1-ylmethyl)piperidino]methylene)malononitrile] | ≥ 80
9 | CC1CCCN1CCCN1CCN(C2CCN(Cc3ccccc3)CC2)C1=C(C#N)C#N (centres unmarked) [Compound 127, {1-(1-Benzylpiperidin-4-yl)-3-[3-(2-methylpyrrolidin-1-yl)propyl]imidazolidin-2-ylidene}malononitrile] | ≥ 80
10 | CC1CCN(CCCN2CCN(CCCN3CC(C)CC(C)C3)C2=C(C#N)C#N)CC1 (centres unmarked) [Compound 106, {1-[3-(3,5-Dimethylpiperidino)propyl]-3-[3-(4-methylpiperidino)propyl]imidazolidin-2-ylidene}malononitrile] | ≥ 80
11 | CCN(CC)CCN1CCN(CCCN2CCCCC2)C1=C(C#N)C#N [Compound 49, [1-(2-Diethylaminoethyl)-3-(3-piperidinopropyl)imidazolidin-2-ylidene]malononitrile] | ≥ 80
12 | CC1CCCN1CCCN1CCN(CCCN2CCOCC2)C1=C(C#N)C#N (centres unmarked) [Compound 85, {1-[3-(2-Methylpyrrolidin-1-yl)propyl]-3-(3-morpholinopropyl)imidazolidin-2-ylidene}malononitrile] | ≥ 80
13 | CC(C)N1CCC(N2CCCN(CCCN3CCCCC3)C2=C(C#N)C#N)CC1 [Compound 238, [1-(1-Isopropylpiperidin-4-yl)-3-(3-piperidinopropyl)tetrahydropyrimidin-2-ylidene]malononitrile] | ≥ 80
14 | CC1CC(C)CN(CCN2CCN(CCCN3CCCCC3)C2=C(C#N)C#N)C1 (centres unmarked) [Compound 13, {1-[2-(3,5-Dimethylpiperidino)ethyl]-3-(3-piperidinopropyl)imidazolidin-2-ylidene}malononitrile] | ≥ 80
15 | CC1CCCN(CCCN2CCN(CCCN3CCCC3C)C2=C(C#N)C#N)C1 (centres unmarked) [Compound 112, {1-[3-(3-Methylpiperidino)propyl]-3-[3-(2-methylpyrrolidin-1-yl)propyl]imidazolidin-2-ylidene}malononitrile] | ≥ 80
16 | CC1CCCN1CCCN1CCN(CCCN2CCCC2C)C1=O (centres unmarked) [Compound 141, 1,3-Bis[3-(2-methylpyrrolidin-1-yl)propyl]imidazolidine-2-one] | ≥ 80

Row | Structure (SMILES) | inhibition at 1 µM [%]
17 | C[C@H]1CCCN1CCCN1C(=C(C#N)C#N)N(CCCN2CCC[C@@H]2C)c2ccccc21 [Compound 125, {1,3-Bis[3-((S)-2-methylpyrrolidin-1-yl)propyl]benzimidazolidin-2-ylidene}malononitrile] | ≥ 80
18 | C[C@@H]1CCCN1CCN(C)C(=C(C#N)C#N)N1CCC(CN2CCCCC2)CC1 [Compound 151, ({N-methyl-N-[2-((R)-2-methylpyrrolidin-1-yl)ethyl]amino}(4-piperidinomethylpiperidino)methylene)malononitrile] | ≥ 80
19 | CC1CCCN1CC1CCN(C(=C(C#N)C#N)N(C)CCN2CCC[C@H]2C)CC1 (stereo partly drawn) [Compound 155, ({N-methyl-N-[2-((R)-2-methylpyrrolidin-1-yl)ethyl]amino}[4-(2-methylpyrrolidin-1-ylmethyl)piperidino]methylene)malononitrile] | ≥ 80
20 | CC1CC(C)CN(CCCN2CCN(CCCN3CCC(O)C3)C2=C(C#N)C#N)C1 (centres unmarked) [Compound 107, {1-[3-(3,5-Dimethylpiperidino)propyl]-3-[3-(3-hydroxypyrrolidin-1-yl)propyl]imidazolidin-2-ylidene}malononitrile] | ≥ 80
21 | CC1CCCN(CCN2CCN(CCCN3CCC[C@@H]3C)C2=C(C#N)C#N)C1 (stereo partly drawn) [Compound 199, {3-[2-(3-Methylpiperidino)ethyl]-1-[3-((S)-2-methylpyrrolidin-1-yl)propyl]imidazolidin-2-ylidene}malononitrile] | ≥ 80
22 | N#CC(C#N)=C1N(CCCN2CC=CCC2)CCN1CCCN1CCCCCC1 [Compound 68, {1-[3-(Azepan-1-yl)propyl]-3-[3-(1,2,3,6-tetrahydropyridin-1-yl)propyl]imidazolidin-2-ylidene}malononitrile] | ≥ 80
23 | CC(C)N1CCC(N2CCN(CCN3CCCCC3)C2=C(C#N)C#N)CC1 [Compound 207, [1-(1-Isopropylpiperidin-4-yl)-3-(2-piperidinoethyl)imidazolidin-2-ylidene]malononitrile] | ≥ 80
24 | CC1CCCN1CCCN1CCN(CCN2CCCCC2)C1=C(C#N)C#N (centres unmarked) [Compound 33, {1-[3-(2-Methylpyrrolidin-1-yl)propyl]-3-(2-piperidinoethyl)imidazolidin-2-ylidene}malononitrile] | ≥ 80
25 | CC1CCCN(CCCN2CCN(CCCN3CC=CCC3)C2=C(C#N)C#N)C1 (centres unmarked) [Compound 87, {1-[3-(1,2,3,6-Tetrahydropyridin-1-yl)propyl]-3-[3-(3-methylpiperidino)propyl]imidazolidin-2-ylidene}malononitrile] | ≥ 80
26 | CC1CCCN1CCCN1CCCN(CCCN2CCCC2C)C1=C(C#N)C#N (centres unmarked) [Compound 123, {1,3-Bis[3-(2-methylpyrrolidin-1-yl)propyl]hexahydropyrimidin-2-ylidene}malononitrile] | ≥ 80
27 | N#CC(C#N)=C1N(CCCN2CCCCCC2)CCN1CCCN1CCCCCC1 [Compound 66, {1,3-Bis[3-(azepan-1-yl)propyl]imidazolidin-2-ylidene}malononitrile] | ≥ 80
28 | C[C@H]1CCCN1CCCN1CCN(CCCN2CCSCC2)C1=C(C#N)C#N [Compound 202, {1-[3-((S)-2-methylpyrrolidin-1-yl)propyl]-3-[3-(thiomorpholin-1-yl)propyl]imidazolidin-2-ylidene}malononitrile] | ≥ 80
29 | CC1CC(C)CN(CCCN2CCN(CCCN3CC(C)CC(C)C3)C2=C(C#N)C#N)C1 (centres unmarked) [Compound 109, {1,3-Bis[3-(3,5-dimethylpiperidino)propyl]imidazolidin-2-ylidene}malononitrile] | ≥ 80
30 | CC(C)N1CCC(NC(=C(C#N)C#N)N2CCC(CN3CCCCC3)CC2)CC1 [Compound 178, [(1-Isopropylpiperidin-4-ylamino)(4-piperidinomethylpiperidino)methylene]malononitrile] | ≥ 80
31 | N#CC(C#N)=C1N(CCCN2CCCCC2)CCN1CCCN1CCOCC1 [Compound 83, [1-(3-Morpholinopropyl)-3-(3-piperidinopropyl)imidazolidin-2-ylidene]malononitrile] | ≥ 80

Same assay, conditions: rat striatum homogenate; read-out: dissociation constant Kd of [3H]-Nα-methylhistamine binding to the rat H3 receptor

Row | Structure (SMILES) | Kd [pM]
32 | CNCCc1cnc[nH]1 [[^3H]-N^α-methylhistamine, reference compound] | 570 ± 40
